Test results published in PubChem BioAssay AID2060905 (Molecular Pharmacology Branch, DTP, NCI, 2025).

System: 282377-053-R-J1-PDC complex spheroid viability
Assay: Anticancer human tumor 282377-053-R-J1-PDC patient-derived colon adenocarcinoma cell line growth inhibition [RAS]
Conditions: for IC50: curve of first compound; for viability, T/C: stronger effect = lower value; active = viability on the fitted dose curve at most 10% of control; inactive = the rest
Summary of the method: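 Tumour cells grown as complex spheroids with HUVEC endothelial cells and mesenchymal stem cells, treated with RAS pathway inhibitor combinations. Each agent spans half-log steps from near clinical Cmax, or 10 microM where Cmax is unknown.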

[1] = second compound 0.0316 µM, first compound 0.0316 µM
[2] = second compound 0.0316 µM, first compound 0.1 µM
[3] = second compound 0.0316 µM, first compound 0.316 µM
[4] = second compound 0.0316 µM, first compound 1 µM
[5] = second compound 0.1 µM, first compound 0.0316 µM
[6] = second compound 0.1 µM, first compound 0.1 µM
[7] = second compound 0.1 µM, first compound 0.316 µM
[8] = second compound 0.1 µM, first compound 1 µM
[9] = second compound 0.316 µM, first compound 0.0316 µM
[10] = second compound 0.316 µM, first compound 0.1 µM
[11] = second compound 0.316 µM, first compound 0.316 µM
[12] = second compound 0.316 µM, first compound 1 µM
[13] = second compound 1 µM, first compound 0.0316 µM
[14] = second compound 1 µM, first compound 0.1 µM
[15] = second compound 1 µM, first compound 0.316 µM
[16] = second compound 1 µM, first compound 1 µM
[17] = second compound 3.16 µM, first compound 0.0316 µM
[18] = second compound 3.16 µM, first compound 0.1 µM
[19] = second compound 3.16 µM, first compound 0.316 µM
[20] = second compound 3.16 µM, first compound 1 µM
[21] = second compound 10 µM, first compound 0.0316 µM
[22] = second compound 10 µM, first compound 0.1 µM
[23] = second compound 10 µM, first compound 0.316 µM
[24] = second compound 10 µM, first compound 1 µM
[25] = second compound 0.0316 µM, first compound 0.000949 µM
[26] = second compound 0.0316 µM, first compound 0.003 µM
[27] = second compound 0.0316 µM, first compound 0.00949 µM
[28] = second compound 0.0316 µM, first compound 0.03 µM
[29] = second compound 0.0316 µM, first compound 0.0949 µM
[30] = second compound 0.0316 µM, first compound 0.3 µM
[31] = second compound 0.1 µM, first compound 0.000949 µM
[32] = second compound 0.1 µM, first compound 0.003 µM
[33] = second compound 0.1 µM, first compound 0.00949 µM
[34] = second compound 0.1 µM, first compound 0.03 µM
[35] = second compound 0.1 µM, first compound 0.0949 µM
[36] = second compound 0.1 µM, first compound 0.3 µM
[37] = second compound 0.316 µM, first compound 0.000949 µM
[38] = second compound 0.316 µM, first compound 0.003 µM
[39] = second compound 0.316 µM, first compound 0.00949 µM
[40] = second compound 0.316 µM, first compound 0.03 µM
[41] = second compound 0.316 µM, first compound 0.0949 µM
[42] = second compound 0.316 µM, first compound 0.3 µM
[43] = second compound 1 µM, first compound 0.000949 µM
[44] = second compound 1 µM, first compound 0.003 µM
[45] = second compound 1 µM, first compound 0.00949 µM
[46] = second compound 1 µM, first compound 0.03 µM
[47] = second compound 1 µM, first compound 0.0949 µM
[48] = second compound 1 µM, first compound 0.3 µM
[49] = second compound 3.16 µM, first compound 0.000949 µM
[50] = second compound 3.16 µM, first compound 0.003 µM
[51] = second compound 3.16 µM, first compound 0.00949 µM
[52] = second compound 3.16 µM, first compound 0.03 µM
[53] = second compound 3.16 µM, first compound 0.0949 µM
[54] = second compound 3.16 µM, first compound 0.3 µM
[55] = second compound 10 µM, first compound 0.000949 µM
[56] = second compound 10 µM, first compound 0.003 µM
[57] = second compound 10 µM, first compound 0.00949 µM
[58] = second compound 10 µM, first compound 0.03 µM
[59] = second compound 10 µM, first compound 0.0949 µM
[60] = second compound 10 µM, first compound 0.3 µM
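Also: spheroids exposed to agents for seven days before readout.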
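For viability, T/C in this document: luminescence viability as percent of DMSO vehicle control wells.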

C=CC(=O)N1CCN(c2nc(OCC3CCCN3C)nc3c(F)c(-c4nc(N)cc(C)c4C(F)(F)F)c(Cl)cc23)C(C)C1 (stereo not drawn) + C#Cc1c(F)ccc2cc(O)cc(-c3ncc4c(N5CC6CCC(C5)N6)nc(OCC56CCCN5CC(F)C6)nc4c3F)c12
> 1000 nM: IC50 (second compound 0.0316 µM) | IC50 (second compound 0.1 µM) | IC50 (second compound 0.316 µM) | IC50 (second compound 1 µM) | IC50 (second compound 3.16 µM) | IC50 (second compound 10 µM)
inactive: viability, T/C (second compound 0.0316 µM, first compound 0.00316 µM) 111% | viability, T/C (second compound 0.0316 µM, first compound 0.01 µM) 128% | viability, T/C [1] 132% | viability, T/C [2] 108% | viability, T/C [3] 107% | viability, T/C [4] 123% | viability, T/C (second compound 0.1 µM, first compound 0.00316 µM) 98.7% | viability, T/C (second compound 0.1 µM, first compound 0.01 µM) 96.9% | viability, T/C [5] 97.2% | viability, T/C [6] 96.4% | viability, T/C [7] 91.6% | viability, T/C [8] 84.4% | viability, T/C (second compound 0.316 µM, first compound 0.00316 µM) 106% | viability, T/C (second compound 0.316 µM, first compound 0.01 µM) 105% | viability, T/C [9] 91% | viability, T/C [10] 99.5% | viability, T/C [11] 96.7% | viability, T/C [12] 104% | viability, T/C (second compound 1 µM, first compound 0.00316 µM) 99.6% | viability, T/C (second compound 1 µM, first compound 0.01 µM) 90.9% | viability, T/C [13] 92.8% | viability, T/C [14] 90.6% | viability, T/C [15] 118% | viability, T/C [16] 97.5% | viability, T/C (second compound 3.16 µM, first compound 0.00316 µM) 91.1% | viability, T/C (second compound 3.16 µM, first compound 0.01 µM) 109% | viability, T/C [17] 107% | viability, T/C [18] 98.6% | viability, T/C [19] 108% | viability, T/C [20] 123% | viability, T/C (second compound 10 µM, first compound 0.00316 µM) 100% | viability, T/C (second compound 10 µM, first compound 0.01 µM) 112% | viability, T/C [21] 116% | viability, T/C [22] 102% | viability, T/C [23] 85.1% | viability, T/C [24] 107%

CC(=O)OC12COC1CC(O)C1(C)C(=O)C(O)C3=C(C)C(OC(=O)C(O)C(NC(=O)OC(C)(C)C)c4ccccc4)CC(O)(C(OC(=O)c4ccccc4)C21)C3(C)C (stereo not drawn) + C#Cc1c(F)ccc2cc(O)cc(-c3ncc4c(N5CC6CCC(C5)N6)nc(OCC56CCCN5CC(F)C6)nc4c3F)c12
< 31.6 nM: IC50 (second compound 0.0316 µM) | IC50 (second compound 0.1 µM) | IC50 (second compound 0.316 µM) | IC50 (second compound 1 µM) | IC50 (second compound 3.16 µM) | IC50 (second compound 10 µM)
inactive: viability, T/C [1] 21.9% | viability, T/C [2] 20.5% | viability, T/C [3] 23.9% | viability, T/C [4] 29.7% | viability, T/C (second compound 0.0316 µM, first compound 3.16 µM) 43.1% | viability, T/C (second compound 0.0316 µM, first compound 10 µM) 52.1% | viability, T/C [5] 25.4% | viability, T/C [6] 23.1% | viability, T/C [7] 23.4% | viability, T/C [8] 28.7% | viability, T/C (second compound 0.1 µM, first compound 3.16 µM) 49.8% | viability, T/C (second compound 0.1 µM, first compound 10 µM) 69.4% | viability, T/C [9] 28.6% | viability, T/C [10] 24.7% | viability, T/C [11] 26.7% | viability, T/C [12] 30.2% | viability, T/C (second compound 0.316 µM, first compound 3.16 µM) 47.4% | viability, T/C (second compound 0.316 µM, first compound 10 µM) 67.2% | viability, T/C [13] 32.6% | viability, T/C [14] 25% | viability, T/C [15] 26.6% | viability, T/C [16] 33% | viability, T/C (second compound 1 µM, first compound 3.16 µM) 60.6% | viability, T/C (second compound 1 µM, first compound 10 µM) 61.5% | viability, T/C [17] 27.9% | viability, T/C [18] 29.2% | viability, T/C [19] 31.4% | viability, T/C [20] 39.6% | viability, T/C (second compound 3.16 µM, first compound 3.16 µM) 58.5% | viability, T/C (second compound 3.16 µM, first compound 10 µM) 66% | viability, T/C [21] 32.1% | viability, T/C [22] 31.8% | viability, T/C [23] 41.6% | viability, T/C [24] 49.3% | viability, T/C (second compound 10 µM, first compound 3.16 µM) 77.7% | viability, T/C (second compound 10 µM, first compound 10 µM) 78.7%

CC1(C)CCC(Nc2ncc(C(F)(F)F)c(-c3c[nH]c4c(P(C)(C)=O)c(C#N)ccc34)n2)CN1 (stereo not drawn) + C#Cc1c(F)ccc2cc(O)cc(-c3ncc4c(N5CC6CCC(C5)N6)nc(OCC56CCCN5CC(F)C6)nc4c3F)c12
inactive: viability, T/C [25] 142% | viability, T/C [26] 109% | viability, T/C [27] 91.4% | viability, T/C [28] 69% | viability, T/C [29] 71.2% | viability, T/C [30] 66.8% | viability, T/C [31] 103% | viability, T/C [32] 132% | viability, T/C [33] 87.1% | viability, T/C [34] 72.6% | viability, T/C [35] 71.9% | viability, T/C [36] 72.5% | viability, T/C [37] 118% | viability, T/C [38] 92.6% | viability, T/C [39] 92.3% | viability, T/C [40] 67.1% | viability, T/C [41] 71.9% | viability, T/C [42] 57.8% | viability, T/C [43] 112% | viability, T/C [44] 110% | viability, T/C [45] 96.9% | viability, T/C [46] 80.4% | viability, T/C [47] 74.9% | viability, T/C [48] 67.7% | viability, T/C [49] 93% | viability, T/C [50] 103% | viability, T/C [51] 98.8% | viability, T/C [52] 75.4% | viability, T/C [53] 83.6% | viability, T/C [54] 72.9% | viability, T/C [55] 113% | viability, T/C [56] 87.3% | viability, T/C [57] 98% | viability, T/C [58] 88.4% | viability, T/C [59] 98.6% | viability, T/C [60] 76.7%
> 300 nM: IC50 (second compound 0.0316 µM) | IC50 (second compound 0.1 µM) | IC50 (second compound 0.316 µM) | IC50 (second compound 1 µM) | IC50 (second compound 3.16 µM) | IC50 (second compound 10 µM)

CCc1c2c(nc3ccc(O)cc13)-c1cc3c(c(=O)n1C2)COC(=O)[C@]3(O)CC + C#Cc1c(F)ccc2cc(O)cc(-c3ncc4c(N5CC6CCC(C5)N6)nc(OCC56CCCN5CC(F)C6)nc4c3F)c12
inactive: viability, T/C [25] 97% | viability, T/C [26] 131% | viability, T/C [27] 120% | viability, T/C [28] 96.8% | viability, T/C [29] 88.2% | viability, T/C [30] 53% | viability, T/C [31] 113% | viability, T/C [32] 122% | viability, T/C [33] 130% | viability, T/C [34] 95.8% | viability, T/C [35] 84.5% | viability, T/C [36] 61.4% | viability, T/C [37] 117% | viability, T/C [38] 128% | viability, T/C [39] 109% | viability, T/C [40] 101% | viability, T/C [41] 85.6% | viability, T/C [42] 55.6% | viability, T/C [43] 108% | viability, T/C [44] 104% | viability, T/C [45] 113% | viability, T/C [46] 95.3% | viability, T/C [47] 80.1% | viability, T/C [48] 61% | viability, T/C [49] 115% | viability, T/C [50] 127% | viability, T/C [51] 125% | viability, T/C [52] 100% | viability, T/C [53] 97.5% | viability, T/C [54] 66.3% | viability, T/C [55] 97.1% | viability, T/C [56] 112% | viability, T/C [57] 116% | viability, T/C [58] 102% | viability, T/C [59] 87.9% | viability, T/C [60] 63.5%
> 300 nM: IC50 (second compound 0.0316 µM) | IC50 (second compound 0.1 µM) | IC50 (second compound 0.316 µM) | IC50 (second compound 1 µM) | IC50 (second compound 3.16 µM) | IC50 (second compound 10 µM)
